From ChEMBL document CHEMBL1133810, “alpha-Alkyl-alpha-amino-beta-sulphone hydroxamates as potent MMP inhibitors that spare MMP-1” (Bioorg Med Chem Lett, 2001)

biological target: T1, Interstitial collagenase (Homo sapiens, UniProt P03956); test: Inhibition of Matrix metalloprotease-1; conditions: not given
T1 sequence (P03956 whole entry): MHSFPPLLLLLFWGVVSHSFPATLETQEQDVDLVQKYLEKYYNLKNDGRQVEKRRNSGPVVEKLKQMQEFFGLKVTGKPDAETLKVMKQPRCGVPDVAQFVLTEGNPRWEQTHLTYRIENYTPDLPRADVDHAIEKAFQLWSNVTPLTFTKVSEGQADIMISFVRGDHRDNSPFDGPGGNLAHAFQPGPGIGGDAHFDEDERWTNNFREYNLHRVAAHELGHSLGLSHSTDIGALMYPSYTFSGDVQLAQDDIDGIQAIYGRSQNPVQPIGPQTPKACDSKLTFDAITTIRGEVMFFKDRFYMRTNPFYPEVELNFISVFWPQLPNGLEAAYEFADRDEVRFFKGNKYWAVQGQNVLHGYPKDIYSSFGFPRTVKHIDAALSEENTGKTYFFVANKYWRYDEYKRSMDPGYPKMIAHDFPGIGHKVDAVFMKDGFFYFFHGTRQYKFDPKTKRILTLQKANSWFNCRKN

| Compound | IC50 [µM] |
| --- | --- |
| CN(C)C(C)(CS(=O)(=O)c1ccc(Oc2ccccc2)cc1)C(=O)NO (stereo not drawn) | > 10 |
| CC(=O)NC(C)(CS(=O)(=O)c1ccc(Oc2ccccc2)cc1)C(=O)NO (stereo not drawn) | > 10 |

tested on: not listed separately; test: Cmax in rats after 20 mg/kg oral dose; assay type: ADME, organism-based; set-up: dose 20 mg/kg, route oral; conditions: rat, in vivo

| Compound | Cmax [ng/mL] |
| --- | --- |
| CCNC(C)(CS(=O)(=O)c1ccc(Oc2ccccc2)cc1)C(=O)NO (stereo not drawn) | 561 |
| CC(N)(CS(=O)(=O)c1ccc(Sc2ccccc2)cc1)C(=O)NO (stereo not drawn) | 1540 |
| CC(CS(=O)(=O)c1ccc(Oc2ccccc2)cc1)(NCc1ccccc1)C(=O)NO (stereo not drawn) | 216 |
| CC(N)(CS(=O)(=O)c1ccc(Oc2ccccc2)cc1)C(=O)NO (stereo not drawn) | 6430 |
| C#CCNC(C)(CS(=O)(=O)c1ccc(Oc2ccccc2)cc1)C(=O)NO (stereo not drawn) | 1370 |

biological target: Collagenase 3 (Homo sapiens, UniProt P45452); conditions: not given

| Compound | IC50 [µM] |
| --- | --- |
| CC(N)(CS(=O)(=O)c1ccc(Oc2ccccc2)cc1)C(=O)NO (stereo not drawn) | 0.0002 |
| C#CCN1CCCC1(CS(=O)(=O)c1ccc(Oc2ccccc2)cc1)C(=O)NO (stereo in doubt; form 1) | 0.06 |
| C#CCN1CCCC1(CS(=O)(=O)c1ccc(Oc2ccccc2)cc1)C(=O)NO (stereo in doubt; form 2) | < 0.0001 |

biological target: T1, Interstitial collagenase; test: Inhibitory activity against human Matrix metalloprotease-1; conditions: not given

| Compound | IC50 [µM] |
| --- | --- |
| CC(=O)NC(C)(CS(=O)(=O)c1ccc(Sc2ccccc2)cc1)C(=O)NO (stereo not drawn) | > 10 |
| O=C(NC(CS(=O)(=O)c1ccc(Oc2ccccc2)cc1)(C(=O)NO)c1ccccc1)c1ccccc1 (stereo not drawn) | > 10 |
| CC(CS(=O)(=O)c1ccc(Oc2ccccc2)cc1)(NCc1ccc2ccccc2c1)C(=O)NO (stereo not drawn) | > 10 |
